Source: patent US20100254965A1, “Adenosine Signaling in Diagnosis, Treatment, and Prevention of Priapism and Erectile Dysfunction” (BOARD OF REGENTS ,THE UNIVERSITY OF TEXAS SYSTEM, priority 2006, published 2010)

Key:
[1] = system: corpus cavernosal strips (CCS); test: EFS-induced cAMP in CCS of ADA+ and ADA-/- mice; assay type: cell-based, mouse; conditions: CCS of either ADA-/- or ADA+ mice, EFS 5V 30 Hz; MRS1706 (10 nM), ZM241385 (50 nM), L-NAME (100 μM)
Protocol: FIG. 19. EFS leads to increased cAMP and cGMP production via A2BR in ADA-deficient mice. (a-b) Corpus cavernosal strips (CCS) of the ADA−/− and ADA+ mice were isolated and treated with 10 μM phenylephrine (PE) to induce precontraction. Then CCS were treated with MRS1706 (10 nM), ZM241385 (50 nM) or L-NAME (100 μM) prior to electrical field stimulation (EFS) at 5V and 30 Hz. 60 second after nerve stimulation, the CCS were quickly frozen and cellular cAMP (a) and cGMP (b) were measured by using commercial enzyme immunoassay kit (Amersham Pharmacia). N=4. Data are expressed as mean±SE. *p<0.05, ADA deficient mice versus the control; **p<0.05, CCS of ADA-deficient mice with MRS1706 and/or L-NAME treatment versus CCS of ADA-deficient mice without treatment; ***p<0.05, CCS of the control mice with MRS1706 and/or L-NAME treatment versus CCS of the control mice without treatment.
Function experiments. […] The contractility of each isolated corpus cavernosum smooth muscle cells (CCSM) strip was measured using an isometric force transducer (AD Instrument Inc., Georgia, Vt., USA). […] The contractile responses of the strips were analysed by adding 10 μM phenylephrine to the bath, and force changes were recorded in response to drug application and to electrical field stimulation. […]

[2] = system: corpus cavernosal smooth muscle cells (CCSM); test: cGMP levels in primary CCSM / PVSM; assay type: cell-based, mouse; conditions: CCSM/PVSM of both wild type and A2BR deficient mice, 10 min
Source text: Results for wild-type and A2B^−/− mouse were statistically significant, p<0.01.
FIG. 18. Adenosine stimulated both cAMP and cGMP induction in corpus cavernosal smooth muscle cells (CCSM) via A2BR activation. (a) Adenosine receptor expression profile in purified primary CCSM. CCSM were purified from adult mouse penes. […] (b) CCSM were isolated and cultured from mouse penes. The cells were switched to serum-free medium and treated with different concentrations of adenosine with or without A2BR antagonist (MRS1706-10 μM), A2AR antagonist (ZM241385-50 nM) or A2AR agonist (CGS-21680-10 μM) alone for 10 min. Then cellular extracts were collected and cAMP levels were measured using an ELISA kit. The data represent mean±SE. *p<0.05, adenosine treated versus the untreated; **p<0.05, adenosine plus MRS1706 or ZM241385 versus the adenosine treated. (c) CCSM were isolated from penes of the wild type and A2BR-deficient mice and cultured with or without adenosine (100 μM), NECA (10 μM), a potent adenosine receptor agonist, forskolin (10 μM), an adenylyl cyclase agonist. […] N=4. *p<0.05, adenosine, forskolin and NECA treated versus the untreated control. (d) Corpus cavernosal strips (CCS) were isolated from wild type and A2BR-deficient mice and treated with different concentrations of adenosine in the presence or absence of L-NAME (100 μM) or MRS1706 (10 μM). 10 min after treatment, cellular extracts were collected and cGMP levels were measured by using a commercial enzyme immunoassay kit (Amersham Pharmacia). Data are expressed as mean±SE. *p<0.05, adenosine treated versus the control; **p<0.05, adenosine treated with MRS1706 versus the adenosine treated; ***p<0.05, CCS of A2BR-deficient mice treated with adenosine versus the CCS of wild type mice treated with adenosine. N=6-7. (e) CCSM were isolated from wild type and A2BR deficient mice and cultured with or without adenosine (100 μM), NECA (10 μM), a potent adenosine receptor agonist, forskolin (10 μM), an adenylyl cyclase agonist, or diethylamine-NONOate (DEA/NO) (10 μM). […] N=4. *p<0.05, DEA/NO treated versus to the untreated control. (f) Both cAMP and cGMP induction contribute to adenosine-mediated decreased PE-induced phosphorylation of myosin light chain (MLC). CCSM and CCS were isolated and cultured with the treatment of phenylephrine (PE-10 μM) in the presence or absence of adenosine (100 μM) or L-NAME (100 μM). 10 min after treatment, cellular extracts were isolated and western blot analysis were performed. The total MLC and phosphorylated MLC at S20 were detected by specific antibodies.
Isolation of primary corpus cavernosal smooth muscle cells (CCSM). Corpus cavernosum tissues were dissected as described above. Cavernosal tissue was washed in PBS and minced into […] pieces. Segments were incubated in 5-10 ml enzyme solutions containing 0.02% collagenase A (0.272 U/mg protein, Roche, Mannheim, Germany) and 0.5% elastase (3.73 U/mg protein, Cell system, St Katharinen, Germany) in a 75 mm flask at 37° C. for 6 hours. Enzymatic digestion was terminated by adding 10 ml DMEM supplemented with 10% fetal calf serum (FCS). […]
Tissue and corpus cavernosum smooth muscle cell (CCSM) cAMP and cGMP measurement. Quantitative assays for cAMP and cGMP were performed by using a commercial enzyme immunoassay kit (Amersham Pharmacia). […]

For `CCCn1c(=O)c2[nH]c(-c3ccc(OCC(=O)Nc4ccc(C(C)=O)cc4)cc3)nc2n(CCC)c1=O` [MRS1706], the “EFS-increased cAMP levels were blocked” value [1] was “completely blocked”.

For `Nc1ncnc2c1ncn2[C@@H]1O[C@H](CO)[C@@H](O)[C@H]1O` [adenosine], the cGMP levels [2] was “lack of significant differences in cGMP production” and the cGMP levels ([2]; listed as Adenosine) was “had no effect”.
